Consider one molecule from patent US7323441B2, “Use of lupin conglutin for the treatment of type II diabetes” (Indena S.p.A., priority 2003, dated 2008).

In this experiment the test system is glucose plasma levels. Kind of experiment: Hypoglycemizing activity in rats after oral glucose administration (2 g/kg). It counts as in vivo, rat. The settings on record: 50 mg/kg os, 30 min before glucose 2 g/kg os; male CD rats; AUC 0 to 90 min; mean±M.S.E. The protocol: Male CD strain rats, of the starting weight 275-300 g, were used. The animals were housed in makrolon cages in environment with automatic control of light (12 hour light/12 hour darkness cycles), temperature (21±1° C.) and humidity (60±5%).
Lupin conglutin gamma prepared as reported in Example 2 was used. 100 rats (divided into in 5 groups of […] animals each) were pre-treated (time−30 min) with: • Group 1: carrier (1% carboxymethylcellulose [CMC]; 2 ml/kg os) • Group 2: lupin conglutin gamma (50 mg/kg os in 1% CMC) • Group 3: lupin conglutin gamma (100 mg/kg os in 1% CMC) • Group 4: lupin conglutin gamma (200 mg/kg os in 1% CMC) • Group 5: metformin (50 mg/kg os in 1% CMC) […]
Immediately before the glucose administration (time 0 min) and 30, 60 and 90 min after the glucose administration, all the animals (n=5 rats for each time) were anaesthetized with sodium thiopental (50 mg/kg i.p.) and 5 ml of blood was drawn from the vena cava. Blood samples were collected in syringes containing EDTA (7.5 mM) as anticoagulant, and immediately subjected to centrifugation (2000 g×10 min at 4° C.) to obtain the plasma necessary for the enzymatic quantitation of glucose.
The quantitation of the glucose in rat plasma was carried out in triplicate by enzymatic assay (absorbance at 505 nm) and the glucose concentration was expressed in mg/dl. […]

Consider `CN(C)C(=N)N=C(N)N` [metformin], for which the “area under the curve (AUC) of glucose plasma levels” value is given as 1565±201.
